Results from PubChem BioAssay (NCI).
“And” between values parts separate entries of the source, which are not always exact repeats. Equal entries are not always repeated.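 Briefly, cells in 96-well plates were exposed to five compound concentrations for 48 h, and endpoints were estimated by linear interpolation. Here, GI50 denotes the concentration required for 50% inhibition of growth. TGI: concentration producing complete growth inhibition.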 Where a SMILES comes first, the peptide text is derived from it. [ ]: non-standard residue; d: D form. Ac5c = NC1(C(=O)O)CCCC1

tested on: A549 NSCLC; assay: DTP human tumour cell line panel, 48 h

First: COc1cc(/C=C/C(=O)CC(=O)/C=C/c2cc(OC)c(OC)c(OC)c2)cc(OC)c1OC
Second: COc1cc(OC)c(/C=C/S(=O)(=O)Cc2cnc(OC)c(N)c2)c(OC)c1
The GI50 of the first is higher: 5.76 µM for the first, under 0.0263 µM for the second.

Going from COc1ccc(CN(C)c2ccc(CO)c(Cl)c2)cc1 to C=CCC(N[C@H](CO)c1ccccc1)c1ccc2ccccc2n1 (some centres not stated), the GI50 rises from 5.75 µM to over 100 µM.

Going from O=C1Nc2ccc(C(=O)c3ccco3)cc2/C1=C/c1cc(Cl)c(O)c(Cl)c1 to Nc1c(C(=O)c2ccc(Cl)cc2)sc(Nc2ccccc2)c1-c1nc2ccccc2s1, the GI50 rises from 6.77 µM to over 100 µM.

First: O=c1ccn(C2OC(CO)C(O)C2F)c(=O)[nH]1 (configuration not stated)
Second: CCN1CCN(C(=O)[C@]23CC[C@@H](C)[C@H](C)[C@@H]2C2=CC[C@@H]4[C@@]5(C)C/C(=C/c6ccncc6)C(=O)C(C)(C)[C@@H]5CC[C@@]4(C)[C@]2(C)CC3)CC1
The GI50 of the first is higher: over 1000 µM for the first, 1.78 µM for the second.

Compared with CC(=O)[O-].CC(=O)[O-].[Pt+2].c1cscn1.c1cscn1, Cc1cc(C)c([O-])c(CN(C)CCN(C)Cc2cc(C)cc(C)c2[O-])c1.O=C([O-])c1cccc(C(=O)[O-])n1.[Ti+4] is 14-fold lower in GI50: 45.1 µM for the first, 3.18 µM for the second.

O=[N+]([O-])c1cc(Cl)c(Cl)c([N+](=O)[O-])c1Cl was tested, and the GI50 was 1.78 µM.

COc1cc(/C=C/C(=O)CC(=O)/C=C/c2cc(OC)c(OC)c(OC)c2)cc(OC)c1OC and COc1cc(OC)c(/C=C/S(=O)(=O)Cc2cnc(OC)c(N)c2)c(OC)c1 cannot be ordered by TGI: over 100 µM for the first, over 100 µM for the second.

c1ccc2c(c1)CCC/C2=N\OCC1CO1 (configuration not stated) and CC[C@@H]1OC2(C)CC(S(=O)(=O)c3ccccc3O)CC1O2 (some centres not stated) cannot be ordered by TGI: over 100 µM for the first, over 100 µM for the second.

Going from COc1ccc(CN(C)c2ccc(CO)c(Cl)c2)cc1 to COc1ccc([N+]2=NC(c3ccc([N+](=O)[O-])cc3)=NN(c3ccccc3)C2)cc1, the TGI rises from 55.6 µM to over 100 µM.

Going from CC/C(C)=C1\CCC(CN2CCOCC2)C1=O (configuration not stated) to CCN1CCN(C(=O)[C@]23CC[C@@H](C)[C@H](C)[C@@H]2C2=CC[C@@H]4[C@@]5(C)C/C(=C/c6ccncc6)C(=O)C(C)(C)[C@@H]5CC[C@@]4(C)[C@]2(C)CC3)CC1, the TGI falls from 41.6 µM to 3.72 µM (11-fold).

COC(=O)C1C(C(=O)OC)C2(OC)c3ccccc3-c3ccccc3C12 (configuration not stated) and CC(=O)CC(=O)Nc1ccc2ccccc2c1 cannot be ordered by TGI: over 100 µM for the first, over 100 µM for the second.

O=C1Nc2ccc(C(=O)c3ccco3)cc2/C1=C/c1cc(Cl)c(O)c(Cl)c1 and O=C1OC(CC(=O)c2ccc(Cl)c(Cl)c2)C(Cl)=C1Cl (configuration not stated) cannot be ordered by TGI: over 24 µM for the first, over 100 µM for the second.

O=c1ccn(C2OC(CO)C(O)C2F)c(=O)[nH]1 (configuration not stated) and CC(=O)OCC1OC(N2C(=O)C(=O)c3cc(C)ccc32)C(OC(C)=O)C(OC(C)=O)C1OC(C)=O (configuration not stated) cannot be ordered by TGI: over 1000 µM for the first, over 100 µM for the second.

CC(=O)[O-].CC(=O)[O-].[Pt+2].c1cscn1.c1cscn1 and Cc1cc(C)c([O-])c(CN(C)CCN(C)Cc2cc(C)cc(C)c2[O-])c1.O=C([O-])c1cccc(C(=O)[O-])n1.[Ti+4] cannot be ordered by TGI: over 100 µM for the first, over 100 µM for the second.

Going from O=[N+]([O-])c1cc(Cl)c(Cl)c([N+](=O)[O-])c1Cl to O=C(/C=C/c1ccc([N+](=O)[O-])o1)N1CCN(Cc2ccccc2)CC1, the TGI rises from 3.65 µM to 35.2 µM (9.6-fold).

NC1(C(=O)NC2(C(=O)O)CCCC2)CCCC1 (H-[Ac5c]-[Ac5c]-OH) and CCCCOC(=O)NC(=O)c1cn(CCCOC(=O)CCCCCCCCC(=O)OCCCn2cc(C(=O)NC(=O)OCCCC)c(=O)[nH]c2=O)c(=O)[nH]c1=O cannot be ordered by TGI: over 100 µM for the first, over 100 µM for the second.

CSc1nc(C)c2c(n1)SCC2 and C=CCC(N[C@H](CO)c1ccccc1)c1ccc2ccccc2n1 (some centres not stated) cannot be ordered by TGI: over 10 µM for the first, over 100 µM for the second.

Compound Nc1c(C(=O)c2ccc(Cl)cc2)sc(Nc2ccccc2)c1-c1nc2ccccc2s1 has a TGI of over 100 µM.

With CO[C@@H]1/C=C\C=C(/C)C(=O)NC2=CC(=O)C(NCCN(C)C)=C(C[C@@H](C)C[C@@H](OC)[C@@H](O)[C@H](C)/C=C(\C)[C@H]1OC(N)=O)C2=O the TGI was 13.3 µM and 18.8 µM.

tested on: 786-0 renal; assay: DTP human tumour cell line panel, 48 h

First: COc1cc(/C=C/C(=O)CC(=O)/C=C/c2cc(OC)c(OC)c(OC)c2)cc(OC)c1OC
Second: COc1cc(OC)c(/C=C/S(=O)(=O)Cc2cnc(OC)c(N)c2)c(OC)c1
The GI50 of the first is higher: 4.05 µM for the first, under 0.031 µM for the second.

First: CO[C@@H]1/C=C\C=C(/C)C(=O)NC2=CC(=O)C(NCCN(C)C)=C(C[C@@H](C)C[C@@H](OC)[C@@H](O)[C@H](C)/C=C(\C)[C@H]1OC(N)=O)C2=O
Second: Cc1cc(C)c([O-])c(CN(C)CCN(C)Cc2cc(C)cc(C)c2[O-])c1.O=C([O-])c1cccc(C(=O)[O-])n1.[Ti+4]
The GI50 of the first is 31-fold lower: 0.0589 µM for the first, 1.83 µM for the second.

Going from COc1ccc(CN(C)c2ccc(CO)c(Cl)c2)cc1 to C=CCC(N[C@H](CO)c1ccccc1)c1ccc2ccccc2n1 (some centres not stated), the GI50 rises from 13.7 µM to over 100 µM.

First: O=C1Nc2ccc(C(=O)c3ccco3)cc2/C1=C/c1cc(Cl)c(O)c(Cl)c1
Second: Nc1c(C(=O)c2ccc(Cl)cc2)sc(Nc2ccccc2)c1-c1nc2ccccc2s1
The GI50 of the first is 1.5-fold higher: 4.29 µM for the first, 2.8 µM for the second.

Going from O=c1ccn(C2OC(CO)C(O)C2F)c(=O)[nH]1 (configuration not stated) to CCN1CCN(C(=O)[C@]23CC[C@@H](C)[C@H](C)[C@@H]2C2=CC[C@@H]4[C@@]5(C)C/C(=C/c6ccncc6)C(=O)C(C)(C)[C@@H]5CC[C@@]4(C)[C@]2(C)CC3)CC1, the GI50 falls from over 1000 µM to 1.73 µM.

First: CC(=O)[O-].CC(=O)[O-].[Pt+2].c1cscn1.c1cscn1
Second: O=[N+]([O-])c1cc(Cl)c(Cl)c([N+](=O)[O-])c1Cl
The GI50 of the first is higher: over 100 µM for the first, 1.88 µM for the second.

First: COc1cc(/C=C/C(=O)CC(=O)/C=C/c2cc(OC)c(OC)c(OC)c2)cc(OC)c1OC
Second: COc1cc(OC)c(/C=C/S(=O)(=O)Cc2cnc(OC)c(N)c2)c(OC)c1
The TGI of the first is lower: 17.6 µM for the first, over 100 µM for the second.

c1ccc2c(c1)CCC/C2=N\OCC1CO1 (configuration not stated) and CC[C@@H]1OC2(C)CC(S(=O)(=O)c3ccccc3O)CC1O2 (some centres not stated) cannot be ordered by TGI: over 100 µM for the first, over 100 µM for the second.

COc1ccc(CN(C)c2ccc(CO)c(Cl)c2)cc1 and COc1ccc([N+]2=NC(c3ccc([N+](=O)[O-])cc3)=NN(c3ccccc3)C2)cc1 cannot be ordered by TGI: over 66.4 µM for the first, over 100 µM for the second.

Compared with CC/C(C)=C1\CCC(CN2CCOCC2)C1=O (configuration not stated), CCN1CCN(C(=O)[C@]23CC[C@@H](C)[C@H](C)[C@@H]2C2=CC[C@@H]4[C@@]5(C)C/C(=C/c6ccncc6)C(=O)C(C)(C)[C@@H]5CC[C@@]4(C)[C@]2(C)CC3)CC1 is 6.7-fold lower in TGI: 22.9 µM for the first, 3.43 µM for the second.

COC(=O)C1C(C(=O)OC)C2(OC)c3ccccc3-c3ccccc3C12 (configuration not stated) and CC(=O)CC(=O)Nc1ccc2ccccc2c1 cannot be ordered by TGI: over 100 µM for the first, over 100 µM for the second.

Compared with O=C1Nc2ccc(C(=O)c3ccco3)cc2/C1=C/c1cc(Cl)c(O)c(Cl)c1, O=C1OC(CC(=O)c2ccc(Cl)c(Cl)c2)C(Cl)=C1Cl (configuration not stated) is higher in TGI: 11.6 µM for the first, over 100 µM for the second.

O=c1ccn(C2OC(CO)C(O)C2F)c(=O)[nH]1 (configuration not stated) and CC(=O)OCC1OC(N2C(=O)C(=O)c3cc(C)ccc32)C(OC(C)=O)C(OC(C)=O)C1OC(C)=O (configuration not stated) cannot be ordered by TGI: over 1000 µM for the first, over 100 µM for the second.

CC(=O)[O-].CC(=O)[O-].[Pt+2].c1cscn1.c1cscn1 and Cc1cc(C)c([O-])c(CN(C)CCN(C)Cc2cc(C)cc(C)c2[O-])c1.O=C([O-])c1cccc(C(=O)[O-])n1.[Ti+4] cannot be ordered by TGI: over 100 µM for the first, over 100 µM for the second.

Compared with O=[N+]([O-])c1cc(Cl)c(Cl)c([N+](=O)[O-])c1Cl, O=C(/C=C/c1ccc([N+](=O)[O-])o1)N1CCN(Cc2ccccc2)CC1 is 7.6-fold higher in TGI: 3.43 µM for the first, 26.1 µM for the second.

NC1(C(=O)NC2(C(=O)O)CCCC2)CCCC1 (H-[Ac5c]-[Ac5c]-OH) and CCCCOC(=O)NC(=O)c1cn(CCCOC(=O)CCCCCCCCC(=O)OCCCn2cc(C(=O)NC(=O)OCCCC)c(=O)[nH]c2=O)c(=O)[nH]c1=O cannot be ordered by TGI: over 100 µM for the first, over 100 µM for the second.

CSc1nc(C)c2c(n1)SCC2 and C=CCC(N[C@H](CO)c1ccccc1)c1ccc2ccccc2n1 (some centres not stated) cannot be ordered by TGI: over 10 µM for the first, over 100 µM for the second.

Compound Nc1c(C(=O)c2ccc(Cl)cc2)sc(Nc2ccccc2)c1-c1nc2ccccc2s1 has a TGI of 8.18 µM.

CO[C@@H]1/C=C\C=C(/C)C(=O)NC2=CC(=O)C(NCCN(C)C)=C(C[C@@H](C)C[C@@H](OC)[C@@H](O)[C@H](C)/C=C(\C)[C@H]1OC(N)=O)C2=O was tested, and the TGI was 15 µM and 26.9 µM.

tested on: IGROV1 ovarian; assay: DTP human tumour cell line panel, 48 h

Going from COc1cc(/C=C/C(=O)CC(=O)/C=C/c2cc(OC)c(OC)c(OC)c2)cc(OC)c1OC to CO[C@@H]1/C=C\C=C(/C)C(=O)NC2=CC(=O)C(NCCN(C)C)=C(C[C@@H](C)C[C@@H](OC)[C@@H](O)[C@H](C)/C=C(\C)[C@H]1OC(N)=O)C2=O, the GI50 falls from 2.83 µM to 0.0164 µM (170-fold).

Going from COc1ccc(CN(C)c2ccc(CO)c(Cl)c2)cc1 to O=C1Nc2ccc(C(=O)c3ccco3)cc2/C1=C/c1cc(Cl)c(O)c(Cl)c1, the GI50 rises from 0.405 µM to 3.36 µM (8.3-fold).

Going from COc1cc(/C=C/C(=O)CC(=O)/C=C/c2cc(OC)c(OC)c(OC)c2)cc(OC)c1OC to COC(=O)C1C(C(=O)OC)C2(OC)c3ccccc3-c3ccccc3C12 (configuration not stated), the TGI rises from 8.22 µM to over 100 µM.

First: c1ccc2c(c1)CCC/C2=N\OCC1CO1 (configuration not stated)
Second: COc1ccc(CN(C)c2ccc(CO)c(Cl)c2)cc1
The TGI of the first is higher: over 100 µM for the first, 3.3 µM for the second.

CC/C(C)=C1\CCC(CN2CCOCC2)C1=O (configuration not stated) and O=C1Nc2ccc(C(=O)c3ccco3)cc2/C1=C/c1cc(Cl)c(O)c(Cl)c1 cannot be ordered by TGI: 38.1 µM for the first, over 20.7 µM for the second.

For CO[C@@H]1/C=C\C=C(/C)C(=O)NC2=CC(=O)C(NCCN(C)C)=C(C[C@@H](C)C[C@@H](OC)[C@@H](O)[C@H](C)/C=C(\C)[C@H]1OC(N)=O)C2=O, the TGI was 1.85 µM and 1.99 µM.
